# Measured values as given in patent US10525055B2, “Opioid receptor antagonist prodrugs” (Nirsum Laboratories, Inc., priority 2017, dated 2020).
# What was measured:
# [1] = Plasma stability assay, rat plasma; assay type: in vitro ADME; settings: 37° C., 10 μM
# Procedure: Plasma stability determination of the test compounds in rat, dog, cynomolgus monkey and human plasma is performed using HPLC-MS. For rat, incubations are carried out in 96-well polypropylene plates in 5 aliquots of 70 μL each (one for each time point). […] Five time points are analyzed (0, 15, 120, 480 and 1440 min). For dog, monkey and human, test compounds (2 μM, final solvent concentration 1%) were also incubated at 37° C. and analyzed at five time points (0, 10, 30, 60 and 120 min). All incubations are performed in duplicates. The samples are analyzed by HPLC-MS. The percentage of parent compound remaining after incubation in plasma is determined.
# MOR = target: T1, MOR (Homo sapiens, UniProt P35372); assay: Opioid receptor binding assay, MOR ([3H]DAMGO); settings: MOR, MaxDose 10000 nM
# T1 construct: expressed in transfected cells; membranes prepared from them
# KOR = target: T2, KOR (Homo sapiens, UniProt P41145); assay: Opioid receptor binding assay, KOR ([3H]Diprenorphine); settings: KOR, MaxDose 10000 nM
# T2 construct: expressed in transfected cells; membranes prepared from them
# DOR = target: T3, DOR (Homo sapiens, UniProt P41143); assay: Opioid receptor binding assay, DOR ([3H]-DADLE); settings: DOR, MaxDose 10000 nM
# T3 construct: expressed in transfected cells; membranes prepared from them
# [2] = Solubility determination in oil (cottonseed oil, sesame oil); settings: heating temp. 60 °C, obs. temp. 25 °C
# Procedure: A known amount of test substance (˜40 mg) was weighed into the vial, 100 μL of oil was added and heated to 60° C. and then system was slurried to reach equilibrium. […] Extra oil was added into the vial once compound precipitated out and then the system was re-equilibrated at 1000 rpm at room temperature (25° C.). Final concentration was determined by HPLC method as described below in Table 6a and 6b.
# [3] = Physical characterization of solid state drug substance (PLM, XRPD, DSC, TGA); assay type: physicochemical
# Procedure: The analysis of the physical characteristics of drug substances that were in a solid state was conducted using polarized light microscopy (PLM), X-ray powder diffractometer (XRPD) assessment, Differential Scanning calorimetry (DSC) and Thermal Gravimetric Analysis (TGA). For PLM, samples were dispersed in immersion oil and were observed using an ocular lens (10×) and objective lens (20×) under crossed polarizers. For XRPD, samples were run on a diffractometer using the following method: Tube—Cu: K-alpha (λ=1.54179 Å); Generator—Voltage 40 kV, Current 40 mA; Scan scope—3 to 40°; sample rotation speed—15 rpm; scanning rate—10 deg/min. For DSC, ˜1 mg of sample was tested using a crimped aluminum pan and covered by a lid with a hole, heated from room temperature to 300° C. at a speed of 10° C./minute. For TGA, 2-5 mg of sample was placed in an open platinum pan and heated from room temperature to 300° C. at a rate of 10° C./minute.
# [4] = Polymorph screening of solid state drug substances; settings: for XRPD results (Dried): stirred 50 °C 72 hours, solids dried; for Visual observation 50° C. / Visual observation RT: target conc. 100 mg/ml
# [5] = Dog pharmacokinetic studies, deep intramuscular; assay type: in vivo, Beagle dogs; settings: dog IM, Cottonseed + 1% Benzyl Alcohol
# Procedure: The purpose of this study is to determine the pharmacokinetics of test compounds in plasma, following deep intramuscular administration to Beagle dogs (n=3, unless otherwise specified).
# The dose formulation (concentration−400 mg base equivalents/ml in sesame oil+1% benzyl alcohol, unless otherwise specified) was administered via deep intramuscularly (unless otherwise specified). The injection vehicle was also dosed via deep intramuscular route (unless otherwise specified) on contralateral site of each animal at study initiation. The animals were sedated with Propofol at 6 mg/kg via IV administration. Following sedation hair was carefully removed from around the injection site and the area gently cleaned. Care will be taken to avoid irritating skin during shaving and cleaning the injection site. Then dogs will be dosed with deep IM administration. At least 2.5 cm depth from the surface into the central aspect of the quadriceps or biceps femoris muscle, by angling the needle toward the femur. If the needle hits the femur, simply draws back slightly and then inject. The dose volume will be determined by the animals' body weight collected on the morning of dosing day. For repeated administration, the injection sites may be rotated to minimize tissue injury.
# Blood samples were collected from a peripheral vessel from restrained, non-sedated animals per sampling time point.
# Approximately 0.8 mL blood will be collected at each time point.
# Each collected blood sample was centrifuged for 4 minutes at 4° C. and 10000 rpm for plasma collection. Plasma was collected and transferred into a pre-labeled PP tube in dry ice at each time point and precipitated immediately using ACN at a ratio of 1:4 (plasma:ACN). Centrifuged again (10 minutes, 12000 rpm) and obtain the supernatant.
# After terminal collection, all supernatant was stored at approximately −80° C. F until bioanalysis.
# LC-MS/MS methods for the quantitative determination of test compound in biological matrix were developed. […] The sample analysis was performed concurrently with a set of calibration standards and two sets of QC samples using the LC-MS/MS method.
# Plasma concentration versus time data was analyzed by non-compartmental approaches using the Phoenix WinNonlin 6.3 software program. Cmax, Tmax, T1/2, AUC(0-t), AUC(0-inf), MRT(0-t), MRT(0-inf) and graphs of plasma concentration versus time profile were prepared.
# T3 sequence (P41143 whole entry): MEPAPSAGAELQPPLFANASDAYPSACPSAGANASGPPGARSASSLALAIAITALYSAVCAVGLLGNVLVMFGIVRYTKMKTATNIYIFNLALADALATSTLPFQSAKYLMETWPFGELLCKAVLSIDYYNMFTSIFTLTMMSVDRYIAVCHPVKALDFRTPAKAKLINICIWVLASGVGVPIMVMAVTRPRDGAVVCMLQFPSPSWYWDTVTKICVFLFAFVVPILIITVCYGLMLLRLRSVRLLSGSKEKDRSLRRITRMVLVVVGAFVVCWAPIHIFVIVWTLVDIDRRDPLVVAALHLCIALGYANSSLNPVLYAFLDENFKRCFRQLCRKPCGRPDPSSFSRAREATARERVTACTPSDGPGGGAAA
# T2 sequence (P41145 whole entry): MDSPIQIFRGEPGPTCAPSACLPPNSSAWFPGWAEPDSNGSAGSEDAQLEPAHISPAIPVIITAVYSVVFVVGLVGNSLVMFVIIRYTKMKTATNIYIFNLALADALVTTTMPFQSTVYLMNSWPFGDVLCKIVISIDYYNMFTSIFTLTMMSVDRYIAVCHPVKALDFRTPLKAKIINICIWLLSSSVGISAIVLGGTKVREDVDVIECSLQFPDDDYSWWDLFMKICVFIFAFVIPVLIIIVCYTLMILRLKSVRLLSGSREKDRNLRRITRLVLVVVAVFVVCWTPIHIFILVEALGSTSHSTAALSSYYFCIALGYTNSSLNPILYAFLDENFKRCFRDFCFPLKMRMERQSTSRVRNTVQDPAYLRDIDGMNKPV
# T1 sequence (P35372 whole entry): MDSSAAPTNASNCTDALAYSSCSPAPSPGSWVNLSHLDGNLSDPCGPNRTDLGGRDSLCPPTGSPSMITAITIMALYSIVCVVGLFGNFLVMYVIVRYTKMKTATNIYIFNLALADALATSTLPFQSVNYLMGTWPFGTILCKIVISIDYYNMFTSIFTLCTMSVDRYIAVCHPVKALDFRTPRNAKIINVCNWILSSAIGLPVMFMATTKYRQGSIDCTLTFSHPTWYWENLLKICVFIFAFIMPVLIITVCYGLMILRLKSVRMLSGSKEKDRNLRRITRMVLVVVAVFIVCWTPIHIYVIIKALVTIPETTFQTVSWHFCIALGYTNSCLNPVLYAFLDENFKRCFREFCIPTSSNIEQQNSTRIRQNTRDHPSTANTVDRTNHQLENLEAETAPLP
Compound,"% remaining at time point in minutes, 0 min [1] [%]","% remaining at time point in minutes, 15 min [1] [%]","% remaining at time point in minutes, 120 min [1] [%]","% remaining at time point in minutes, 480 min [1] [%]","% remaining at time point in minutes, 1440 min [1] [%]",%Inh@MaxDose (MOR) [%],%Inh@MaxDose (KOR) [%],%Inh@MaxDose (DOR) [%],Approximate Solubility (mg/mL) in Excipient: Sesame oil [2] [mg/mL],other results
"CCCCCCCCOC(=O)Oc1ccc2c3c1O[C@H]1C(=O)CC[C@@]4(O)C(C2)N(CC2CC2)CC[C@]314 [Compound 23, (4aS,7aR,12bS)-3-(cyclopropylmethyl)-4a-hydroxy-7-oxo-2,3,4,4a,5,6,7,7a-octahydro-1H-4,12-methanobenzofuro[3,2-e]isoquinolin-9-yl octyl carbonate]",10,0,0,0,0,98.7,101.6,95.6,>423.9,Approximate Solubility (mg/mL) in Excipient: Cottonseed oil ([2]; Cottonseed oil): >407.7 mg/mL
"C=C1CC[C@@]2(O)C3Cc4ccc(OCOC(=O)OCCCCCCCCCCCCCC)c5c4[C@@]2(CCN3CC2CC2)[C@H]1O5 [Compound 25, (((4aS,7aS,12bS)-3-(cyclopropylmethyl)-4a-hydroxy-7-methylene-2,3,4,4a,5,6,7,7a-octahydro-1H-4,12-methanobenzofuro[3,2-e]isoquinolin-9-yl)oxy)methyl tetradecyl carbonate]",100,82.6,69.3,62.2,51.7,87.3,76.9,62,,
"C=C1CC[C@@]2(O)C3Cc4ccc(OC(=O)OCCCCCCCCCCCCC)c5c4[C@@]2(CCN3CC2CC2)[C@H]1O5 [Compound 30, (4aS,7aS,12bS)-3-(cyclopropylmethyl)-4a-hydroxy-7-methylene-2,3,4,4a,5,6,7,7a-octahydro-1H-4,12-methanobenzofuro[3,2-e]isoquinolin-9-yl tridecyl carbonate]",100,65.7,40.3,30.5,22.2,82.5,97.6,84.3,252.55 to 398.6,
"C=C1CC[C@@]2(O)C3Cc4ccc(OC(=O)NC(C)(C)C)c5c4[C@@]2(CCN3CC2CC2)[C@H]1O5 [Compound 40, (4aS,7aS,12bS)-3-(cyclopropylmethyl)-4a-hydroxy-7-methylene-2,3,4,4a,5,6,7,7a-octahydro-1H-4,12-methanobenzofuro[3,2-e]isoquinolin-9-yl tert-butylcarbamate]",,,,,,,,,,"X-ray Powder Diffraction ([3]; solid state drug substance, XRPD/PLM): Crystal form with partial; XRPD results (Dried) ([4]; Acetone): Amorphous; Visual observation 50° C. ([4]; Acetone): Clear; Visual observation RT ([4]; Acetone): Slurry; XRPD results (Dried) ([4]; EtOAc): Pattern A; Visual observation 50° C. ([4]; EtOAc): Clear; Visual observation RT ([4]; EtOAc): Slurry; XRPD results (Dried) ([4]; Heptane): Pattern A; Visual observation 50° C. ([4]; Heptane): Slurry; Visual observation RT ([4]; Heptane): Slurry; XRPD results (Dried) ([4]; Isopropanol): Amorphous; Visual observation 50° C. ([4]; Isopropanol): Clear; Visual observation RT ([4]; Isopropanol): Slurry; XRPD results (Dried) ([4]; MTBE): Amorphous; Visual observation 50° C. ([4]; MTBE): Clear; Visual observation RT ([4]; MTBE): Clear; Comment: stability of initial crystal form (pattern A) ([4]; polymorph screen over Heptane, MTBE, Isopropanol, EtOAc, Acetone): stable form. Same crystal form"
"C=C1CC[C@@]2(O)C3Cc4ccc(OCOC(=O)CCCCCCCCCCCCC)c5c4[C@@]2(CCN3CC2CC2)[C@H]1O5 [Compound 45, (((4aS,7aS,12bS)-3-(cyclopropylmethyl)-4a-hydroxy-7-methylene-2,3,4,4a,5,6,7,7a-octahydro-1H-4,12-methanobenzofuro[3,2-e]isoquinolin-9-yl)oxy)methyl tetradecanoate]",,,,,,93.7,100.1,71.8,,AUC0-inf (ng · h/mL) prodrug ([5]; 30 mg/kg): 100 ng·h/mL; Half-life t1/2 (hour) prodrug ([5]; 30 mg/kg): 151 h; AUC0-inf (ng · h/mL) prodrug ([5]; 48 mg/kg): 267 ng·h/mL; Half-life t1/2 (hour) prodrug ([5]; 48 mg/kg): 171 h
"C=C1CC[C@@]2(O)C3Cc4ccc(OC(=O)CCCCCCCCCCCCCCC)c5c4[C@@]2(CCN3CC2CC2)[C@H]1O5 [Compound 56, (4aS,7aS,12bS)-3-(cyclopropylmethyl)-4a-hydroxy-7-methylene-2,3,4,4a,5,6,7,7a-octahydro-1H-4,12-methanobenzofuro[3,2-e]isoquinolin-9-yl palmitate, reference compound]",100,73.1,56.7,35.8,16.8,,,,,"Thermal Gravimetric Analysis, weight loss ([3]; at 120° C., heated from room temperature at 10° C./minute): Weight loss of 0.1815%"
